We go through 1 compound from patent US8158606B2, “β-L-2′-deoxynucleosides for the treatment of resistant HBV strains and combination therapies” (priority 2002, dated 2012).

The data set in a line: Single-dose bioavailability of L-dC in the woodchuck. The class given is in vivo. As to conditions: for half-life: in vivo, read-out: t1/2 of L-dC (converted); for bioavailability: po, 10 mg/kg, L-dC 10 mg/kg PO vs IV; for AUC(0-t): read-out: AUCt→24 of L-dC. How it is done: Plasma drug levels, CL, ty, and F were determined.
The mark [1] stands for this setting: plasma, L-dC 10 mg/kg single IV dose, mean.
The mark [2] stands for this setting: plasma, L-dC 10 mg/kg single PO dose, mean.

Where two headings read alike, the source gives them in different places.

Consider `Nc1ccn([C@@H]2CC(O)[C@H](CO)O2)c(=O)n1` (stereo partly drawn) [L-dC, 2′-Deoxy-β-L-cytidine], for which the half-life was 171 min (L-dC 10 mg/kg single IV dose, mean) and 313 min (L-dC 10 mg/kg single PO dose, mean). Further, the bioavailability (plasma, read-out: oral bioavailability (F), average) was found to be 9.57% and the bioavailability (plasma, read-out: oral bioavailability, range of animals) lay within 5.6 to 16.9%. Besides, the Tmax turned out to be 0 h (plasma, L-dC 10 mg/kg single IV dose) and 3 h under setting [2]. For the same compound, the Vd under setting [1] was found to be 1.17 L/kg. Under setting [1], this compound showed a clearance of 6.5 mL/min/kg. Further, the Cmax reads like this: (plasma, L-dC 10 mg/kg single IV dose, mean, at 2 minutes post-dose) 112 µM; under setting [2], 1.37 µM. Moreover, the AUC(0-t) is 174 µM·h (plasma, L-dC 10 mg/kg single IV dose, n=3, t = 0.033 hours, mean) and 11.3 µM·h (plasma, L-dC 10 mg/kg single PO dose, n=3, t = 0.25 hours, mean).

One may read the bioavailability as dose-corrected exposure relative to a reference, in per cent. The term Tmax denotes the time from dosing to the highest level. The Vd is a proportionality between amount in the body and measured concentration, not a real space. As a reminder, the clearance is the volume of plasma or blood freed of the substance per unit of time. The Cmax is the peak of the concentration-time curve.
